The results in this text go back to US7192728B2, “Screening assays for agents that alter inhibitor of apoptosis (IAP) protein regulation of caspase activity” (The Burnham Institute, priority 1997, dated 2007).

The target of assay [1] is T1, pro-caspase-9 (Homo sapiens, UniProt P55211).
T1 construct: in vitro translated ^35S-labeled pro-caspase-9 and Apaf-1 were incubated individually or together; His6; made in house; host or cells: coupled in vitro transcription/translation in reticulocyte lysate (TNT kit, Promega)
T1 sequence (P55211 1-416): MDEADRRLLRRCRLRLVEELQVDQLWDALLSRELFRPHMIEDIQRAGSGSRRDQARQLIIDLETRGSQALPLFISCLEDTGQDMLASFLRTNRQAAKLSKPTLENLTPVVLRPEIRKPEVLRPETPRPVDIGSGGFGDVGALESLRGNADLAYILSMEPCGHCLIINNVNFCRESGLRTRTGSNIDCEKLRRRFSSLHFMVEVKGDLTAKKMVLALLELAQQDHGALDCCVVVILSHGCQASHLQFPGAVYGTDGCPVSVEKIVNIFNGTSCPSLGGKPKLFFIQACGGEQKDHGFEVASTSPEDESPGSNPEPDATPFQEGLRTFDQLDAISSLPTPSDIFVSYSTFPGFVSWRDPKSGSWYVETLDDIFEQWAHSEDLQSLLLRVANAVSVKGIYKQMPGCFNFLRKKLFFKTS
Briefly: In vitro reconstituted pro-caspase-9 processing (Apaf-1, cytochrome c, dATP). The assay is classed as biochemical. As to conditions: 0.1 μM protein; Apaf-1, 10 μM cytochrome c, 1 mM dATP.
Experimental: For the results shown in FIGS. 5A and 5B, in vitro translated ^35S-labeled pro-caspase-9 and Apaf-1 were incubated individually or together with 10 μM cytochrome c and 1 mM dATP. Processing of pro-caspase-9 in the absence or presence of 0.1 μM of the indicated GST-IAP or 0.1 μM Bcl-XL was then monitored by SDS-PAGE and autoradiography.
To assay caspase-9 activation in vitro, one microgram of plasmids containing cDNAs encoding pro-caspase-9 (pET21(b)-Mch-6) or Apaf-1 (pcDNA3-Apaf-1) was in vitro transcribed and translated in the presence of [^35S]-L-methionine using a coupled transcription/translation TNT kit (Promega) according to manufacturer's instructions. Proteins were desalted and exchanged into Buffer A with Bio-spin P-6 columns (BioRad). […] The reactions were analyzed by SDS-PAGE and autoradiography. For some experiments, in vitro translated His6-caspase-9 was purified by metal chromatography.

For another assay, the system named is 293T cells. Briefly: Caspase-9-induced pro-caspase-3 processing and apoptosis in transfected 293T cells. It is filed as cell-based, human. As to conditions: co-transfection with FLAG-caspase-9; for number of apoptotic 293T cells (in words): DAPI staining. The procedure:
(§1) Co-immunoprecipitations and immunoblot assays were performed as follows. […] Cells were collected 24–48 hrs later by centrifugation, washed in ice cold PBS and lysed for 20 minutes in lysis buffer (10 mM Hepes, 142 mM KCl, 5 mM MgCl2, 1 mM EGTA, 0.2% NP-40). Lysates were cleared by centrifugation at 16,000×g for 30 minutes. Myc-tagged IAP proteins were immunoprecipitated with 40 μl of anti-myc 9E10 antibody immobilized on Protein G-Sepharose (Santa Cruz) for 2 hrs. Immunoprecipitates were washed 3 times with lysis buffer, and bound proteins separated by SDS-PAGE and analyzed by immunoblotting using antibodies specific for the FLAG epitope (Kodak, Inc.), myc-epitope, or caspase-3.
Cell lysates were prepared 16 hr later for either (A) immunoblot analysis of caspase-3, or (B) DEVD-AFC. Immunoblot analysis of pro-caspase-3 was performed with lysates from cells induced to undergo apoptosis by overexpressing pro-caspase-9 in the absence or presence of the IAPs. For DEVD-AFC analysis, lysates were normalized for total protein content and assayed for hydrolysis of DEVD-AFC as described above. […] In panel D, IAP proteins were immunoprecipitated with anti-myc antibody immobilized on protein G-Sepharose at ˜16 hours post-transfection. Immunoblot analysis with anti-FLAG antibody was employed for detection of pro-caspase-9 in the resulting immune complexes. Lysates from the same cell (50 μg per lane) were also analyzed by immunoblotting using anti-FLAG and anti-myc antibodies to verify expression of […].

The next assay deals with T2, caspase-7 (Homo sapiens, UniProt P55210).
T2 construct: Purified active caspase concentrations ranged from 0.1 nM to 10 nM; His6; made in house; host or cells: E. coli BL21(DE3)pLysS
T2 sequence (P55210 24-198 limits assumed): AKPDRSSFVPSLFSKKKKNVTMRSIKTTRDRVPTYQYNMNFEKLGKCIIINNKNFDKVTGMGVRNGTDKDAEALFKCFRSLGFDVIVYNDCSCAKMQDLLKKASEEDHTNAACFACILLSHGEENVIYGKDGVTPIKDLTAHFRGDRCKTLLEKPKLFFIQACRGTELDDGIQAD
T2 sequence (P55210 207-303 limits assumed): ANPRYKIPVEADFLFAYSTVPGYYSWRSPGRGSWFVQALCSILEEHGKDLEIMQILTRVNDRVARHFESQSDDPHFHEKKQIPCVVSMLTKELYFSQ
Briefly: GST pull-down binding to caspase-7. To be noted: glutathione-Sepharose beads, immunoblot. The procedure:
Following incubation at 4° C. for 60 min, the beads were removed by centrifugation and washed twice with 100 vol 50 mM Tris (pH 7.5), 150 mM KCl, 2 mM DTT and 0.025% Triton-X100, then subjected to SDS-PAGE and immunoblot assay (see Example I.B.3).
(In western blotting, separated proteins are transferred to a membrane and probed.)

The subject of assay [2] is pro-caspase-9. In words: Co-immunoprecipitation of pro-caspase-9 with myc-tagged IAPs in 293T cells. It is filed as binding, human. To be noted: anti-myc immunoprecipitation, anti-FLAG blot. The procedure: as §1
Cell lysates were prepared 16 hr later for either (A) immunoblot analysis of caspase-3, or (B) DEVD-AFC. Immunoblot analysis of pro-caspase-3 was performed with lysates from cells induced to undergo apoptosis by overexpressing pro-caspase-9 in the absence or presence of the IAPs. For DEVD-AFC analysis, lysates were normalized for total protein content and assayed for hydrolysis of DEVD-AFC as described above. […] Lysates from the same cell (50 μg per lane) were also analyzed by immunoblotting using anti-FLAG and anti-myc antibodies to verify expression of […].

A further assay has as its target T3, caspase-6 (Homo sapiens, UniProt P55212).
T3 construct: Purified active caspase concentrations ranged from 0.1 nM to 10 nM; His6; made in house; host or cells: E. coli BL21(DE3)pLysS
T3 sequence (P55212 24-179 limits assumed): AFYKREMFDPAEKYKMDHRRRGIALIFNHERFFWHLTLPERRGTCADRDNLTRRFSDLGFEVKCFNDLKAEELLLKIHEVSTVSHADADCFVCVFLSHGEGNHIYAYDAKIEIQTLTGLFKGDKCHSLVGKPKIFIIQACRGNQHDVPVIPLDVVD
T3 sequence (P55212 194-293 limits assumed): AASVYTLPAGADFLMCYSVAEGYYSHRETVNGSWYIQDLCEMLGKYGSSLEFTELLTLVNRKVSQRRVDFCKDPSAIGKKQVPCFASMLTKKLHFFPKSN
In words: GST pull-down binding to caspase-6. As to conditions: glutathione-Sepharose beads, immunoblot.

Consider “c-IAP-2: cellular IAP protein c-IAP-2/HIAP-1/hMIHC, recombinant GST fusion or myc-tagged”, for which, in the assay with pro-caspase-9 [1], the “pro-caspase-9 processing in reconstituted system (in words)” value is recorded as “completely blocked”. Further, in the assay with 293T cells, the “caspase-9-induced cleavage of pro-caspase-3 and Ac-DEVD-AFC cleavage activity (in words)” value was “markedly reduced”; the “number of apoptotic 293T cells (in words)” value was “a reduction in the number of apoptotic 293T cells”. The “binding of caspase-7 (in words)” value in the assay with caspase-7 is “bound”. Further, in the assay on pro-caspase-9 [2], the “co-immunoprecipitation of the zymogen form of caspase-9 (in words)” value is “co-immunoprecipitated”.
“XIAP: X chromosome linked inhibitor of apoptosis protein (Genbank U32974), used mostly as recombinant GST fusion or expressed from plasmid”: in the assay with pro-caspase-9 [1], the “pro-caspase-9 processing in reconstituted system (in words)” value is “completely blocked”. Also, in the assay with 293T cells, the “caspase-9-induced cleavage of pro-caspase-3 and Ac-DEVD-AFC cleavage activity (in words)” value is recorded as “markedly reduced”; the “number of apoptotic 293T cells (in words)” value is “a reduction in the number of apoptotic 293T cells”. Moreover, the “binding of caspase-7 (in words)” value with caspase-7 is recorded as “Specific binding”. Moreover, in the assay with caspase-6, the “binding of caspase-6 (in words)” value is reported as “not caspase-6”. The “co-immunoprecipitation of the zymogen form of caspase-9 (in words)” value in the assay with pro-caspase-9 [2] is reported as “co-immunoprecipitated”.
